The record followed here is PubChem BioAssay AID179 (DTP/NCI, 2004).

Broadly, the EC50 is the concentration at which the effect is half-maximal. Usually IC50 stands for the concentration that inhibits the measured activity by half. Read a low IC50 as greater potency.

The structures appear in SMILES notation. Active and inactive are the calls of the source.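 Rule for the calls: active = compounds giving half or more protection of infected cells from virus-caused growth loss, again on retest; inactive = the rest.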

The assay deals with CEM cells HIV-1 protection, formazan growth assay. As to the kind of experiment: NCI AIDS Antiviral Assay. To be noted: for IC50: measured here: growth of uninfected CEM cells. Summed up: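 Screen of anti-HIV-1 activity in human CEM cells using a formazan-based growth measurement at five drug concentrations. Hits with 50% or greater protection were repeated, and confirmation required reproducible complete protection.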

In the case of `C/C=C/CC(C)C(O)C1C(=O)NC(CC)C(=O)N(C)CC(=O)N(C)C(CC(C)C)C(=O)NC(C(C)C)C(=O)N(C)C(CC(C)C)C(=O)NC(C)C(=O)NC(C)C(=O)N(C)C(CC(C)C)C(=O)N(C)C(CC(C)C)C(=O)N(C)C(C(C)C)C(=O)N1C` (stereo not drawn), the EC50 is 3.39 µM and the half-inhibitory concentration (IC50) is 8.13 µM. In the case of `O=C(Nc1ccc(Cl)cc1Cl)c1cc2nc3ccccc3c(=O)n2c2ccccc12`, the EC50 is more than 100 µM and the IC50 was more than 100 µM.

In the case of `Nc1nc(Cl)cc(NCC2CC(O)(CO)C2)n1` (stereo not drawn), the EC50 was more than 200 µM and the IC50 was more than 200 µM. As to `C1=NCCNCCNCCN=Cc2ccc(cc2)OCc2cccc(n2)COc2ccc1cc2`, the EC50 was more than 50.1 µM and the IC50 was more than 50.1 µM. For the molecule `Cc1ccc(Nc2[nH]c(=O)[nH]c(=O)c2C)cc1Cl`, the EC50 is more than 200 µM and the IC50 was determined as 158 µM. On to `COc1ccc(-c2cc(Cc3cccs3)c(=O)[nH]n2)cc1`, for which the outcome was inactive. As to `Fc1cc(F)c(F)c(S)c1F`, the result was active.

For `COc1cc(O)c2c(c1)O[C@H](C)C(C)C2=O` (stereo partly drawn), the EC50 is more than 200 µM and the IC50 was more than 200 µM. Turning to `CC1(C)OC2COC(=O)CC2O1` (stereo not drawn), the EC50 was more than 200 µM and the IC50 was more than 200 µM.

As for `CCOC(=O)Cc1c[nH]c2ccc(N(CCO)CCO)cc12`, the EC50 was more than 200 µM. With `COc1ccc(C2C(Cl)C(=O)N2NC(=O)c2ccc(NC(C)=O)cc2)cc1OC` (stereo not drawn), the EC50 was more than 200 µM and the IC50 is more than 200 µM. For the molecule `COC(=O)C(C(=O)C(=O)Nc1nc(=S)[nH][nH]1)c1csc(N)n1` (stereo not drawn), the EC50 was more than 724 µM and the concentration for half-maximal inhibition (IC50) is more than 724 µM. Regarding `COc1ccccc1/C=C/c1ccc2ccccc2n1`, the EC50 is more than 200 µM and the IC50 stood at 38 µM.

Regarding `Cc1ccc2oc3ccccc3c(=O)c2c1`, the EC50 is more than 24.5 µM and the IC50 is more than 24.5 µM. For the molecule `N#CCc1n[nH]c(Cc2ccccc2)n1`, the EC50 was more than 200 µM and the IC50 is more than 200 µM. With `COc1ccc(CC(NC(=O)NSc2ccccc2)C(=O)NC2C(CO)OC(n3cnc4c(N(C)C)ncnc43)C2O)cc1` (stereo not drawn), the EC50 is more than 200 µM and the IC50 is 87.1 µM.

In the case of `COc1cc2c3c(c1)nc(C)n3C(=O)C(C)S2` (stereo not drawn), the EC50 is more than 200 µM and the IC50 was found to be 50.1 µM.

Consider `O=C1/C(=C/c2ccccc2)CN(C(=O)C(F)(F)F)C/C1=C\c1ccccc1`, for which the outcome was inactive. Regarding `NNC(=O)C(=O)N/N=C1/CCCC1C(=O)CCC(=O)Nc1ccc(Cl)cc1` (stereo not drawn), the EC50 is more than 66.1 µM and the IC50 was more than 66.1 µM. In the case of `O=C(CNc1ccc(Cl)cc1Cl)NC1C=Cc2ccc(S(=O)(=O)Nc3ccc(Cl)cc3Cl)cc2C1=O` (stereo not drawn), the EC50 was more than 200 µM and the concentration for half-maximal inhibition (IC50) was more than 200 µM. For the molecule `COc1ccc(C(=O)c2ccccc2)c(O)c1`, the EC50 is more than 200 µM and the 50% inhibitory concentration (IC50) was more than 200 µM. For the molecule `Cc1ccc2nc(N/N=C/c3ccc(C)s3)cc(C)c2c1`, the EC50 is more than 200 µM and the IC50 was determined as 14.5 µM. For `Cc1ccccc1NC(=O)C(=O)C(c1cnc2ccc([N+](=O)[O-])cc2n1)[N+](=O)[O-]` (stereo not drawn) the same measures were more than 240 µM and 126 µM. As to `O=C(Nc1ccc(Cl)cc1)NS(=O)(=O)c1coc2ccccc2c1=O`, the EC50 was more than 200 µM and the half-inhibitory concentration (IC50) was determined as 93.3 µM. For the molecule `CC(CCc1nc2ccccc2o1)C1CCC2C3CC[C@@H]4C[C@H](O)CC[C@]4(C)C3CC[C@]12C` (stereo partly drawn), the EC50 was more than 50.1 µM and the half-maximal inhibitory concentration (IC50) came to 17.4 µM. As for `Oc1ccccc1C=Nc1ccccc1SSc1ccccc1N=Cc1ccccc1O`, the EC50 was more than 200 µM and the IC50 was found to be 8.13 µM. For `CC(C)N1CSC(=S)NCCNC(=S)SC1`, the EC50 is more than 200 µM and the IC50 came out at 95.5 µM.

In the case of `CCC1=C(OC)c2nc(C)ccc2C(=O)C1=O`, the result was inactive.

As to `Cc1ccc(Nc2nc3c(=O)n(C)c(=O)n(C)c3nc2Nc2ccc(C)cc2)cc1`, the EC50 is more than 200 µM and the half-inhibitory concentration (IC50) was found to be 2.04 µM. `CCO/C=C(\C)CC1([N+](=O)[O-])C(=O)c2ccccc2C1=O`: the result was inactive. With `COc1ccc(C(=C2C(=O)OC(=O)C2=C(C)C)c2ccc(OC)cc2)cc1`, the EC50 is more than 200 µM and the 50% inhibitory concentration (IC50) turned out to be 95.5 µM. As for `COC(=O)C1(Cc2ccccc2C)Cc2ccc(C)cc2C1=O` (stereo not drawn), the EC50 is more than 200 µM and the IC50 worked out at 57.5 µM. Consider `Cc1ccc(N=N/C(=N/NC(=O)c2cc(Cl)ccc2O)c2ccc(N(CCC#N)CCC#N)cc2C)cc1`, for which the EC50 is more than 200 µM and the half-inhibitory concentration (IC50) was 10.7 µM.

Regarding `C1CN2N3CCCC23C1` (stereo not drawn), the EC50 was more than 2000 µM and the half-inhibitory concentration (IC50) was more than 2000 µM. For `O=C(N(O)c1ccccc1Cl)C(O)(c1ccccc1)c1ccccc1`, the EC50 is more than 20 µM and the half-maximal inhibitory concentration (IC50) was more than 20 µM. For `CCCCCCCCO/N=C\c1c2c(O)c3c(O)c(C)c4c(c3c1O)C(=O)C(C)(O/C=C\C(OC)C(C)C(OC(C)=O)C(C)C(O)C(C)C(O)C(C)/C=C\C=C(\C)C(=O)N2)O4` (stereo not drawn), the EC50 is more than 200 µM and the IC50 amounted to 3.89 µM. As for `Cc1cn([C@@H]2O[C@H](CO[Si](C)(C)C(C)(C)C)[C@]3(O[C@H]3C(=O)NN)[C@H]2O[Si](C)(C)C(C)(C)C)c(=O)[nH]c1=O`, the EC50 was more than 200 µM and the half-maximal inhibitory concentration (IC50) is 3.63 µM. Take `CNCCS(=O)(=O)O`: the EC50 was more than 200 µM and the IC50 was more than 200 µM. For the molecule `Cc1ccc(-c2c3nc(c(-c4ccc(C)cc4)c4ccc([nH]4)c(-c4ccc(C)cc4)c4nc(c(-c5ccncc5)c5ccc2[nH]5)C=C4)C=C3)cc1.Cc1ccc(-c2c3nc(c(-c4ccc(C)cc4)c4ccc([nH]4)c(-c4ccc(C)cc4)c4nc(c(-c5ccncc5)c5ccc2[nH]5)C=C4)C=C3)cc1.O=S(=O)([O-])C(F)(F)F.[Pd+2].c1ccc([PH+](CCC[PH+](c2ccccc2)c2ccccc2)c2ccccc2)cc1`, the EC50 was more than 50.1 µM and the half-maximal inhibitory concentration (IC50) worked out at 3.47 µM.

`CCCCCCCCCCCCCC1CCC(CC)N1` (stereo not drawn): the EC50 was more than 331 µM and the 50% inhibitory concentration (IC50) is more than 331 µM. Turning to `CC(C)(C)[Si](C)(C)OCC1OC(n2cnc3c(=O)[nH]c(N)nc32)C(O[Si](C)(C)C(C)(C)C)C1O[Si](C)(C)C(C)(C)C` (stereo not drawn), the EC50 is more than 200 µM and the concentration for half-maximal inhibition (IC50) stood at 4.17 µM. For the molecule `C=C1C(=O)OC2CC(C)C(C(O)CC(C)O)=CCC12` (stereo not drawn), the EC50 was more than 447 µM and the half-inhibitory concentration (IC50) was found to be 8.32 µM. Taken in the same sequence, the figures for `CC(=O)NNC(=S)/N=C\c1c(O)[nH]c(=O)[nH]c1=O` were more than 200 µM and more than 200 µM. With `O=C(NO)c1cccc(OCc2ccc(Br)cc2)c1`, the EC50 was more than 200 µM and the IC50 amounted to 9.12 µM. Turning to `S=C1CNC(=S)CN1`, the outcome was inactive.

Consider `COC1OC(CCC2NC(CO)C(O)C(O)C2O)C(O)C(O)C1O` (stereo not drawn), for which the EC50 was more than 200 µM and the IC50 was more than 200 µM. In the case of `COc1ccc(CCC2(C(OC)OC)NC(=O)NC2=O)cc1` (stereo not drawn), the EC50 was more than 200 µM and the IC50 was more than 200 µM. On to `O=C(O)c1cc(O)cc(O)c1N=Nc1ccc(CCc2ccc(N=Nc3c(O)cc(O)cc3C(=O)O)cc2S(=O)(=O)O)c(S(=O)(=O)O)c1`, for which the concentration for a half-maximal effect (EC50) was 2.75 µM and the half-maximal inhibitory concentration (IC50) is 75.9 µM. Consider `CONC(C)=O`, for which the EC50 was more than 200 µM and the IC50 was more than 200 µM. In the case of `C#CCOCn1cnc2c(N)ncnc21`, the EC50 was more than 1230 µM and the half-maximal inhibitory concentration (IC50) was 692 µM.
